The subject of assay [1] is female patients unable to achieve a successful pregnancy. Briefly: Open-label oral treatment of infertility clinic patients. Type of assay: in vivo, human. The conditions noted are these: oral form, 100 mg-5 g/day for three months, patients unable to achieve pregnancy for at least six months. Here is the method: Several patients from an active infertility clinic population are selected for open-label treatment with linoleic acid. All female patients have been unable to achieve a successful pregnancy for at least six months. Linoleic acid is formulated into a pharmaceutical oral form at a dosage of 100 mg-5 g/day for three months.

Assay [2] concerns uterine lining Th1/Th2 balance. The assay is described as follows: Animal model, immune function of the uterine lining. Format: in vivo. The settings on record: intravaginal injection, intrauterine injection or soaked vaginal sponge; versus sterile saline control animals. On the procedure:
An animal model is used to determine the effects of linoleic acid on immune function of the uterine lining. Linoleic acid is delivered via several different methods—direct injection of the linoleic acid formulation into the vagina, direct injection of linoleic acid formulation into the uterus, linoleic acid soaked into a sponge and placed into the vagina. Control animals have sterile saline instilled in place of linoleic acid. The animals are then sacrificed, and the uterine lining is analyzed for changes in immunologic activity.

The source of these data is patent US7767713B2, “Linoleic acid active agents for enhancing probability of becoming pregnant” (Palo Alto Investors, priority 2004, dated 2010).

In the case of `CCCCC/C=C\C/C=C\CCCCCCCC(=O)O` [linoleic acid, Linoleic acid], the Successful pregnancies result in assay [1] is listed as “Successful pregnancies are seen in at least one patient”. The “Changes in Th1/Th2 balance of uterine lining” value in assay [2] is reported as “Changes in Th1/Th2 balance are seen”.
